# Measured values: publication PMC6409085, “Three odorant-binding proteins are involved in the behavioral response of Sogatella furcifera to rice plant volatiles” (PeerJ, 2019)
# “And” between values parts separate entries of the source, which are not always exact repeats. Identical values can stand only once.
# What was measured:
# Experiment in all cases: biochemical
# Assay type in all cases: binding
# SfurOBP2 = SfurOBP2 (Sogatella furcifera, UniProt V5T759)
# Method: (§1) Thirty-six rice odorants ([He et al., 2014]; [Wang et al., 2017]) and 1-N-phenyl-naphthylamine (1-NPN) were purchased from Sigma-Aldrich (St Louis, MO, USA). These odorants and 1-NPN were dissolved in high-performance liquid chromatography (HPLC) purify grade methanol for 1.0 mM as work solution.
# (§2) Fluorescence competitive binding assays were performed on Tecan Spark 10M (Tecan Group Ltd., Männedorf, Switzerland) with the F96 Black ELIAS Plate (Sangon) ([Khuhro et al., 2017]; [Liu et al., 2017]). The solutions were excited at 337 nm and emission spectra were recorded between 390 and 490 nm. First, to test the binding constants of 1-NPN to the SfurOBPs, a 2.0 µM solution of protein in 50 mM Tris-HCl (pH = 7.4) was titrated with 1 mM 1-NPN to achieve virous concentrations. Next, the competitive binding of each odorant was measured using the 1-NPN as fluorescent reporter and odorant as competitor. The concentrations of protein and 1-NPN were both 2.0 µM, the odorant added after protein and 1-NPN added into the well of ELIAS Plate for 2 min. The final concentrations of each competitor were 2, 4, 6, 8, 10, 12, 14, 16, 18 and 20 µM. After 2 min of odorant added, the fluorescence intensity was measured and recorded. The volume of mixed solution in each well was maintained at 250 µL. Each interaction was performed in triplicates.
# (§3) GraphPad Prism 7.0 software (GraphPad Software, Inc., La Jolla, CA, USA) was used to calculated and generated the binding constants (K1−NPN) of 1-NPN to SfurOBPs and relative Scatchard plots ([Ban et al., 2003]; [Li et al., 2016]). Dissociation constant (Ki) of each odorant to SfurOBP was computed from the corresponding IC50 value (the half maximal inhibitory concentration), using the following equation: Ki=[IC50]/(1 + [1-NPN]/K1−NPN), where [1-NPN] is the free concentration of 1-NPN and K1−NPN is the dissociation constant of the complex protein/1-NPN.
# SfurOBP1 = SfurOBP1 (Sogatella furcifera, UniProt V5T8N5); conditions: for Fluorescence competitive binding assay, fluorescence intensity: OBP1, three replicate columns
# SfurOBP1, sequence (V5T8N5 entry or part of it): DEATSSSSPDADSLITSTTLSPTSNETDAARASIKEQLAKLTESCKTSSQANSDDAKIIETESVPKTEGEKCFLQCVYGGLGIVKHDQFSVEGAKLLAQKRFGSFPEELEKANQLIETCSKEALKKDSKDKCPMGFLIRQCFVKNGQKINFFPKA
# Method: as §1, §2, §3
# SfurOBP11 = SfurOBP11 (Sogatella furcifera, UniProt V5T6E3)
# SfurOBP11, sequence (V5T6E3 entry or part of it): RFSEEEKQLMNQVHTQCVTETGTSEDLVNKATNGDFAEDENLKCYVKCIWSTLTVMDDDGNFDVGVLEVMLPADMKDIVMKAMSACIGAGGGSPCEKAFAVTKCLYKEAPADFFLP
# Method: as §1, §2, §3
# SfurOBP3 = SfurOBP3 (Sogatella furcifera, UniProt V5T818); conditions: for Fluorescence competitive binding assay, fluorescence intensity: OBP3, three replicate columns
# SfurOBP3, sequence (V5T818 entry or part of it): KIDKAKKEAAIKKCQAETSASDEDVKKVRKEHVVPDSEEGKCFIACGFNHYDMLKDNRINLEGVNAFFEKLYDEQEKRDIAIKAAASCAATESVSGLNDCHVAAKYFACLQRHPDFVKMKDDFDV
# Method: as §1, §2, §3
# SfurOBP2, sequence (V5T759 entry or part of it): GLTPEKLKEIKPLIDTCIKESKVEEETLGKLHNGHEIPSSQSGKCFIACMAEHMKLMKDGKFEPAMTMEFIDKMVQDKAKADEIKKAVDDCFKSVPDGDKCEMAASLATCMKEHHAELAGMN
structure (smiles),measurement,setting,value
c1ccc2ccccc2c1 [naphthalene],IC50,SfurOBP2,> 20 µM
same,"Fluorescence competitive binding assay, OBP2 (raw fluorescence reading)","SfurOBP2; ligand concentration 2 (unit not given), replicate column 1 of 3",21005
same,"Fluorescence competitive binding assay, OBP2 (raw fluorescence reading)","SfurOBP2; ligand concentration 2 (unit not given), replicate column 2 of 3",21502
same,"Fluorescence competitive binding assay, OBP2 (raw fluorescence reading)","SfurOBP2; ligand concentration 2 (unit not given), replicate column 3 of 3",19080
same,"Fluorescence competitive binding assay, OBP2 (raw fluorescence reading)","SfurOBP2; ligand concentration 4 (unit not given), replicate column 1 of 3",24365
same,"Fluorescence competitive binding assay, OBP2 (raw fluorescence reading)","SfurOBP2; ligand concentration 4 (unit not given), replicate column 2 of 3",22710
same,"Fluorescence competitive binding assay, OBP2 (raw fluorescence reading)","SfurOBP2; ligand concentration 4 (unit not given), replicate column 3 of 3",24844
same,"Fluorescence competitive binding assay, OBP2 (raw fluorescence reading)","SfurOBP2; ligand concentration 6 (unit not given), replicate column 1 of 3",22191
same,"Fluorescence competitive binding assay, OBP2 (raw fluorescence reading)","SfurOBP2; ligand concentration 6 (unit not given), replicate column 2 of 3",22417
same,"Fluorescence competitive binding assay, OBP2 (raw fluorescence reading)","SfurOBP2; ligand concentration 6 (unit not given), replicate column 3 of 3",22519
same,"Fluorescence competitive binding assay, OBP2 (raw fluorescence reading)","SfurOBP2; ligand concentration 8 (unit not given), replicate column 1 of 3",23158
same,"Fluorescence competitive binding assay, OBP2 (raw fluorescence reading)","SfurOBP2; ligand concentration 8 (unit not given), replicate column 2 of 3",21663
same,"Fluorescence competitive binding assay, OBP2 (raw fluorescence reading)","SfurOBP2; ligand concentration 8 (unit not given), replicate column 3 of 3",20781
same,"Fluorescence competitive binding assay, OBP2 (raw fluorescence reading)","SfurOBP2; ligand concentration 10 (unit not given), replicate column 1 of 3",20596
same,"Fluorescence competitive binding assay, OBP2 (raw fluorescence reading)","SfurOBP2; ligand concentration 10 (unit not given), replicate column 2 of 3",20292
same,"Fluorescence competitive binding assay, OBP2 (raw fluorescence reading)","SfurOBP2; ligand concentration 10 (unit not given), replicate column 3 of 3",20233
same,"Fluorescence competitive binding assay, OBP2 (raw fluorescence reading)","SfurOBP2; ligand concentration 12 (unit not given), replicate column 1 of 3",19697
same,"Fluorescence competitive binding assay, OBP2 (raw fluorescence reading)","SfurOBP2; ligand concentration 12 (unit not given), replicate column 2 of 3",18134
same,"Fluorescence competitive binding assay, OBP2 (raw fluorescence reading)","SfurOBP2; ligand concentration 12 (unit not given), replicate column 3 of 3",19454
same,"Fluorescence competitive binding assay, OBP2 (raw fluorescence reading)","SfurOBP2; ligand concentration 14 (unit not given), replicate column 1 of 3",17572
same,"Fluorescence competitive binding assay, OBP2 (raw fluorescence reading)","SfurOBP2; ligand concentration 14 (unit not given), replicate column 2 of 3",18013
same,"Fluorescence competitive binding assay, OBP2 (raw fluorescence reading)","SfurOBP2; ligand concentration 14 (unit not given), replicate column 3 of 3",17420
same,"Fluorescence competitive binding assay, OBP2 (raw fluorescence reading)","SfurOBP2; ligand concentration 16 (unit not given), replicate column 1 of 3",16408
same,"Fluorescence competitive binding assay, OBP2 (raw fluorescence reading)","SfurOBP2; ligand concentration 16 (unit not given), replicate column 2 of 3",15544
same,"Fluorescence competitive binding assay, OBP2 (raw fluorescence reading)","SfurOBP2; ligand concentration 16 (unit not given), replicate column 3 of 3",15169
same,"Fluorescence competitive binding assay, OBP2 (raw fluorescence reading)","SfurOBP2; ligand concentration 18 (unit not given), replicate column 1 of 3",18334
same,"Fluorescence competitive binding assay, OBP2 (raw fluorescence reading)","SfurOBP2; ligand concentration 18 (unit not given), replicate column 2 of 3",23371
same,"Fluorescence competitive binding assay, OBP2 (raw fluorescence reading)","SfurOBP2; ligand concentration 18 (unit not given), replicate column 3 of 3",18960
same,"Fluorescence competitive binding assay, OBP2 (raw fluorescence reading)","SfurOBP2; ligand concentration 20 (unit not given), replicate column 1 of 3",17296
same,"Fluorescence competitive binding assay, OBP2 (raw fluorescence reading)","SfurOBP2; ligand concentration 20 (unit not given), replicate column 2 of 3",16882
same,"Fluorescence competitive binding assay, OBP2 (raw fluorescence reading)","SfurOBP2; ligand concentration 20 (unit not given), replicate column 3 of 3",15413
same,IC50,SfurOBP1,> 20 µM
same,"Fluorescence competitive binding assay, fluorescence intensity",SfurOBP1; ligand concentration 2 (μM),5483 and 5608 and 5501
same,"Fluorescence competitive binding assay, fluorescence intensity",SfurOBP1; ligand concentration 4 (μM),5830 and 5745 and 5659
same,"Fluorescence competitive binding assay, fluorescence intensity",SfurOBP1; ligand concentration 6 (μM),5799 and 5826 and 5942
same,"Fluorescence competitive binding assay, fluorescence intensity",SfurOBP1; ligand concentration 8 (μM),6002 and 5983 and 5964
same,"Fluorescence competitive binding assay, fluorescence intensity",SfurOBP1; ligand concentration 10 (μM),5834 and 6388 and 6102
same,"Fluorescence competitive binding assay, fluorescence intensity",SfurOBP1; ligand concentration 12 (μM),6285 and 6121 and 6209
same,"Fluorescence competitive binding assay, fluorescence intensity",SfurOBP1; ligand concentration 14 (μM),6231 and 6194 and 6297
same,"Fluorescence competitive binding assay, fluorescence intensity",SfurOBP1; ligand concentration 16 (μM),6398 and 6743 and 6035
same,"Fluorescence competitive binding assay, fluorescence intensity",SfurOBP1; ligand concentration 18 (μM),6548 and 7178 and 7195
same,"Fluorescence competitive binding assay, fluorescence intensity",SfurOBP1; ligand concentration 20 (μM),7389 and 7177 and 6994
same,IC50,SfurOBP11,> 20 µM
same,"Fluorescence intensity, fluorescence competitive binding assay, OBP11","SfurOBP11; ligand concentration 2, replicate 1",34403
same,"Fluorescence intensity, fluorescence competitive binding assay, OBP11","SfurOBP11; ligand concentration 2, replicate 2",32473
same,"Fluorescence intensity, fluorescence competitive binding assay, OBP11","SfurOBP11; ligand concentration 2, replicate 3",34898
same,"Fluorescence intensity, fluorescence competitive binding assay, OBP11","SfurOBP11; ligand concentration 4, replicate 1",34130
same,"Fluorescence intensity, fluorescence competitive binding assay, OBP11","SfurOBP11; ligand concentration 4, replicate 2",34738
same,"Fluorescence intensity, fluorescence competitive binding assay, OBP11","SfurOBP11; ligand concentration 4, replicate 3",32492
same,"Fluorescence intensity, fluorescence competitive binding assay, OBP11","SfurOBP11; ligand concentration 6, replicate 1",35498
same,"Fluorescence intensity, fluorescence competitive binding assay, OBP11","SfurOBP11; ligand concentration 6, replicate 2",33550
same,"Fluorescence intensity, fluorescence competitive binding assay, OBP11","SfurOBP11; ligand concentration 6, replicate 3",32552
same,"Fluorescence intensity, fluorescence competitive binding assay, OBP11","SfurOBP11; ligand concentration 8, replicate 1",32155
same,"Fluorescence intensity, fluorescence competitive binding assay, OBP11","SfurOBP11; ligand concentration 8, replicate 2",35048
same,"Fluorescence intensity, fluorescence competitive binding assay, OBP11","SfurOBP11; ligand concentration 8, replicate 3",30051
same,"Fluorescence intensity, fluorescence competitive binding assay, OBP11","SfurOBP11; ligand concentration 10, replicate 1",30839
same,"Fluorescence intensity, fluorescence competitive binding assay, OBP11","SfurOBP11; ligand concentration 10, replicate 2",29352
same,"Fluorescence intensity, fluorescence competitive binding assay, OBP11","SfurOBP11; ligand concentration 10, replicate 3",29736
same,"Fluorescence intensity, fluorescence competitive binding assay, OBP11","SfurOBP11; ligand concentration 12, replicate 1",30215
same,"Fluorescence intensity, fluorescence competitive binding assay, OBP11","SfurOBP11; ligand concentration 12, replicate 2",28382
same,"Fluorescence intensity, fluorescence competitive binding assay, OBP11","SfurOBP11; ligand concentration 12, replicate 3",27824
same,"Fluorescence intensity, fluorescence competitive binding assay, OBP11","SfurOBP11; ligand concentration 14, replicate 1",26586
same,"Fluorescence intensity, fluorescence competitive binding assay, OBP11","SfurOBP11; ligand concentration 14, replicate 2",26869
same,"Fluorescence intensity, fluorescence competitive binding assay, OBP11","SfurOBP11; ligand concentration 14, replicate 3",27309
same,"Fluorescence intensity, fluorescence competitive binding assay, OBP11","SfurOBP11; ligand concentration 16, replicate 1",25698
same,"Fluorescence intensity, fluorescence competitive binding assay, OBP11","SfurOBP11; ligand concentration 16, replicate 2",25045
same,"Fluorescence intensity, fluorescence competitive binding assay, OBP11","SfurOBP11; ligand concentration 16, replicate 3",25361
same,"Fluorescence intensity, fluorescence competitive binding assay, OBP11","SfurOBP11; ligand concentration 18, replicate 1",25004
same,"Fluorescence intensity, fluorescence competitive binding assay, OBP11","SfurOBP11; ligand concentration 18, replicate 2",25141
same,"Fluorescence intensity, fluorescence competitive binding assay, OBP11","SfurOBP11; ligand concentration 18, replicate 3",24946
same,"Fluorescence intensity, fluorescence competitive binding assay, OBP11","SfurOBP11; ligand concentration 20, replicate 1",23792
same,"Fluorescence intensity, fluorescence competitive binding assay, OBP11","SfurOBP11; ligand concentration 20, replicate 2",23804
same,"Fluorescence intensity, fluorescence competitive binding assay, OBP11","SfurOBP11; ligand concentration 20, replicate 3",23815
same,IC50,SfurOBP3,> 20 µM
same,"Fluorescence competitive binding assay, fluorescence intensity",SfurOBP3; ligand concentration 2,99229 and 86961 and 92264
same,"Fluorescence competitive binding assay, fluorescence intensity",SfurOBP3; ligand concentration 4,97193 and 95605 and 87600
same,"Fluorescence competitive binding assay, fluorescence intensity",SfurOBP3; ligand concentration 6,102900 and 102445 and 98166
same,"Fluorescence competitive binding assay, fluorescence intensity",SfurOBP3; ligand concentration 8,100522 and 107674 and 104095
same,"Fluorescence competitive binding assay, fluorescence intensity",SfurOBP3; ligand concentration 10,49630 and 50618 and 48648
same,"Fluorescence competitive binding assay, fluorescence intensity",SfurOBP3; ligand concentration 12,46251 and 47333 and 45186
same,"Fluorescence competitive binding assay, fluorescence intensity",SfurOBP3; ligand concentration 14,39681 and 44579 and 42492
same,"Fluorescence competitive binding assay, fluorescence intensity",SfurOBP3; ligand concentration 16,42940 and 41521 and 40287
same,"Fluorescence competitive binding assay, fluorescence intensity",SfurOBP3; ligand concentration 18,51522 and 51973 and 51748
same,"Fluorescence competitive binding assay, fluorescence intensity",SfurOBP3; ligand concentration 20,50731 and 60428 and 55580
